Experiments:
[1] = tested on: immune cells isolated from the spleens of normal C57/BL6 mice; experiment: Suppression of SDF1-induced migration of spleen immune cells in trans wells; type: cell-based; settings: SD911 20 μM; SDF1 20 ng/ml in lower compartment; FIGS. 1A and 1B
Method: The present inventors screened a novel compound SD911 by using activity inhibition analysis of inflammatory cytokines in immune cells of a sphingosin 1-phosphate lyase (SPL) inhibitor, and tried to confirm an immune cell migration inhibitory effect of the screened SD911. Specifically, single cells (immune cells) were isolated from the spleens of normal C57/BL6 mice, and the isolated immune cells were cultured in […] trans wells (upper compartment). For migration of the cultured immune cells, stromal cell-derived factor 1 (SDF1) was treated at a concentration of 20 ng/ml to stimulate the lower compartment. The immune cells moved to the lower compartment by stromal cell-derived factor 1 (SDF1), and at this time, whether the migration was inhibited by SD911 was analyzed.

[2] = tested on: allogenic skin transplantation animal model; experiment: Skin transplant viability in allogenic skin transplantation animal model; type: in vivo; settings: 200 μg/mice
Source text: (§1) In order to confirm A therapeutic effect of SD911 of the present invention on transplantation rejection, an allogenic skin transplantation animal model was used. Specifically, as the allogenic skin transplantation animal model, the tail skins of male donor […] mice (Orient Bio Inc.) were exfoliated and transplanted onto the back skins of male recipient BALB/c mice (Orient Bio Inc.). One day before transplant, the recipient mice were divided into two groups, a control group (Saline group) administered intraperitoneally with physiological saline, and an experimental group (SD911 group) administered with SD911 at a concentration of 200 μg/mice.
The skin changes of the control group or the experimental group (SD911 group) treated with SD911 at a concentration of 200 μg/mice were observed daily, and the viability was calculated by calculating the rejection when scab formation or skin atrophy of 70% or more occurred on the transplanted skin. A drug administration schedule was illustrated in FIG. 2A.

[3] = tested on: T cell subtypes (Th1, Th2, Th17, Treg); experiment: T cell subtype analysis by flow cytometry of spleen immune cells in skin transplantation model; type: in vivo; settings: 200 μg/mice, spleen after 5 days, compared to control group
Source text: as §1
Some of the recipient mice that had undergone the skin transplant were humanely sacrificed after 5 days, the spleens were extracted, and immune cells were isolated from the spleens. In order to analyze T cell subtypes in the isolated immune cells, flow cytometry was performed, and to identify pro-inflammatory T cells, the number of CD4+, IFN+, IL4+ and IL17+ positive cells was analyzed. In addition, regulatory T cells (Treg) were identified as CD4+CD25+Foxp3+ positive cells.

[4] = tested on: human leukocyte antigen (HLA); experiment: HLA inhibition in IFNγ-treated kidney organoids (in vitro rejection model); type: cell-based; settings: 50 μM SD911; kidney organoids from WTC-11 iPSC treated with IFNγ; FIG. 4
Method: (§2) WTC-11 cells, standard normal human induced pluripotent stem cells (iPSC) were differentiated into kidney organoids and treated with IFNγ, a cytokine known to induce transplantation rejection to construct an in vitro rejection model increasing human leukocyte antigen (HLA). Thereafter, the constructed kidney organoids were treated with 50 μM of SD911.

kidney organoids = experiment: Flow cytometry of nephron marker double positive cells in cytokine-treated kidney organoids; type: cell-based, human; settings: SD911 50 μg/mL; TNF-α and INFγ treated kidney organoids; FIGS. 5A to 5F
Method: as §2
In the kidney organoids prepared in Example 3-1, when treated with the cytokines TNF-α and INFγ and when treated with SD911 at a concentration of 50 μg/mL, changes in cell patterns were analyzed by flow cytometry. Specifically, the patterns of nephron markers PODXL, LTL, ECAD and double positive cells in kidney organoids were analyzed.

[5] = tested on: kidney transplantation rejection model; experiment: Cell infiltration and kidney damage (H&E) in kidney transplantation rejection model; type: in vivo; settings: 300 μg/mice, compared with the vehicle group, FIGS. 8A and 8B
Method: In order to produce a kidney transplantation rejection model, peripheral blood mononuclear cells (PBMCs) derived from transplantation rejection patients (kidney transplantation rejection patients) were intravascularly injected at a cell concentration of 5×10^6/mice, and then after 3 weeks, engraftment of transplantation rejection patient cells in the blood was confirmed, and a kidney transplantation rejection model was constructed. As a control group, normal human PBMCs were injected (FIG. 6). At 3 weeks after PBMC administration to the kidney transplantation rejection model prepared in Example 4-1, the mice were treated with physiological saline (vehicle) and SD911 (300 μg/mice) and sacrificed at 4 weeks and then the kidneys of the mice were extracted.

[6] = tested on: CD4+T (CD4+), subtype of human immune cells; experiment: CD4 positive cell infiltration in renal tissue by immunohistochemical staining, kidney transplantation rejection model; type: in vivo; settings: 300 μg/mice, group injected with PBMCs of patients with kidney transplantation rejection, FIGS. 9A and 9B
Method: (§3) In order to produce a kidney transplantation rejection model, peripheral blood mononuclear cells (PBMCs) derived from transplantation rejection patients (kidney transplantation rejection patients) were intravascularly injected at a cell concentration of 5×10^6/mice, and then after 3 weeks, engraftment of transplantation rejection patient cells in the blood was confirmed, and a kidney transplantation rejection model was constructed. As a control group, normal human PBMCs were injected (FIG. 6).
(§4) At 3 weeks after PBMC administration to the kidney transplantation rejection model prepared in Example 4-1, the mice were treated with physiological saline (vehicle) and SD911 (300 μg/mice) and sacrificed at 4 weeks and then the kidneys of the mice were extracted.
(§5) Immunohistochemical staining was performed to confirm whether CD4+T (CD4+), subtype of human immune cells, has been infiltrated in the renal tissue extracted in Example 4-2. The extracted tissue was fixed with formalin, and then embedded in paraffin to generate slices with a thickness of 5 μm. In order to observe immune cells in the tissue, immunohistochemical analysis was performed by reacting with a human CD4 antibody on the slice slide.

IL-17 = IL-17 positive cell infiltration in renal tissue by immunohistochemical staining, kidney transplantation rejection model; type: in vivo; settings: 300 μg/mice, group injected with PBMCs of patients with kidney transplantation rejection, FIGS. 10A and 10B
Method: as §3, §4
as §5, with “whether IL-17, an inflammatory cytokine,” for “whether CD4+T (CD4+), subtype of human immune cells,”, “infiltrated into” for “infiltrated in”, “human IL-17” for “human CD4”

SMILES: C[C@@H]1CN(c2nnc(Oc3ccccc3)c3ccccc23)CCN1c1ccc(C#N)cn1 [SD911, 6-((R)-2-methyl-4-(1-phenoxyphthalazin-4-yl)piperazin-1-yl)pyridine-3-carbonitrile]
- migration of immune cells induced by SDF1 [1]: blocked
- viability of the transplanted skin ([2]; compared to control (Saline) group, FIG. 2B): significantly increased
- survival time of the transplanted skin ([2]; compared to control group, FIG. 2C): significantly increased
- number of Th1 cells ([3]; FIG. 3A): significantly decreased
- number of Th2 cells ([3]; FIG. 3B): significantly decreased
- number of Th17 cells ([3]; FIG. 3C): significantly decreased
- Treg (CD4+CD25+Foxp3+ positive cells) ([3]; FIG. 3D): increased
- HLA increased by IFNγ [4]: suppressed
- positive cell ratio of the nephron marker (PODXL, LTL, ECAD double positive cells) (kidney organoids): significantly decreased
- kidney damage [5]: suppressed
- human PBMC infiltration ([5]; glomerulus): suppressed
- infiltration of CD4-positive cells [6]: significantly reduced
- infiltration of IL-17-positive cells (IL-17): significantly reduced

Source: US20240131027A1, “PHARMACEUTICAL COMPOSITION COMPRISING NOVEL SD911 COMPOUND AS ACTIVE INGREDIENT FOR PREVENTION OR TREATMENT OF TRANSPLANT REJECTION” (THE CATHOLIC UNIVERSITY OF KOREA INDUSTRY-ACADEMIC …, priority 2021, published 2024)
